Assay results: patent US10238743B2 (Merck Sharp & Dohme Corp., priority 2014, dated 2019)

Tests used:
[1] = target: soluble human BACE1 catalytic domain (Homo sapiens (Human), UniProt P56817); experiment: BACE1 HTRF FRET Assay; type: biochemical; conditions: Ki calculated from IC50 using the Cheng-Prusoff equation; QSY7-APPswe-Eu substrate, pH 5.0; read-out: BACE-1 Ki
Excerpt: Na^+-Acetate pH 5.0; 1% Brij-35; Glycerol; Dimethyl Sulfoxide (DMSO); Recombinant human soluble BACE1 catalytic domain (>95% pure); APP Swedish mutant peptide substrate (QSY7-APP^swe-Eu): QSY7-EISEVNLDAEFC-Europium-amide.
A homogeneous time-resolved FRET assay can be used to determine IC50 values for inhibitors of the soluble human BACE1 catalytic domain. This assay monitors the increase of 620 nm fluorescence that resulted from BACE1 cleavage of an APPswedish APP^swe mutant peptide FRET substrate (QSY7-EISEVNLDAEFC-Europium-amide). This substrate contains an N-terminal QSY7 moiety that serves as a quencher of the C-terminal Europium fluorophore (620 nm Em). In the absence of enzyme activity, 620 nm fluorescence is low in the assay and increased linearly over 3 hours in the presence of uninhibited BACE1 enzyme. Inhibition of BACE1 cleavage of the QSY7-APP^swe-Eu substrate by inhibitors is manifested as a suppression of 620 nm fluorescence.
Varying concentrations of inhibitors at 3× the final desired concentration in a volume of 10 ul are preincubated with purified human BACE1 catalytic domain (3 nM in 10 μl) for 30 minutes at 30° C. in reaction buffer containing 20 mM Na-Acetate pH 5.0, 10% glycerol, 0.1% Brij-35 and 7.5% DSMO. Reactions are initiated by addition of 10 μl of 600 nM QSY7-APP^swe-Eu substrate (200 nM final) to give a final reaction volume of 30 μl in a 384 well Nunc HTRF plate. The reactions are incubated at 30° C. for 1.5 hours. The 620 nm fluorescence is then read on a Rubystar HTRF plate reader (BMG Labtechnologies) using a 50 millisecond delay followed by a 400 millisecond acquisition time window. Inhibitor IC50 values are derived from non-linear regression analysis of concentration response curves. Ki values are then calculated from IC50 values using the Cheng-Prusoff equation using a previously determined […] of 8 μM for the QSY7-APP^swe-Eu substrate at BACE1.

[2] = target: purified human autoBACE-2 (Homo sapiens (Human), UniProt Q9Y5Z0); experiment: BACE-2 Assay (BACE-HTRF assay); type: biochemical; conditions: Ki calculated from IC50 using the Cheng-Prusoff equation; QSY7-EISEVNLDAEFC-Eu-amide substrate, pH 5.0
Sequence of purified human autoBACE-2 (Q9Y5Z0 63-473 limits assumed): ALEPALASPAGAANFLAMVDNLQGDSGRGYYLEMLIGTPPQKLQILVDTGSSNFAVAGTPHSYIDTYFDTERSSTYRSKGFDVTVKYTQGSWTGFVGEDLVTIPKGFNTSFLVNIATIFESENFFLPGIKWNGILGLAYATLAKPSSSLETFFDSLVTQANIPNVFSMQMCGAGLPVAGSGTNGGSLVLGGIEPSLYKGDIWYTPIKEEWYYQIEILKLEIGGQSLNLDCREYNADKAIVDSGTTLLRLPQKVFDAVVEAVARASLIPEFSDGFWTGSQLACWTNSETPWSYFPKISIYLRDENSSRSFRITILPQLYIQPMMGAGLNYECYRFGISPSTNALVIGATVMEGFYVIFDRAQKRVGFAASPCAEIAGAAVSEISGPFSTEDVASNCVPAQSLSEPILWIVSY
Description: Inhibitor IC50s at purified human autoBACE-2 are determined in a time-resolved endpoint proteolysis assay that measures hydrolysis of the QSY7-[…]-Eu-amide FRET peptide substrate (BACE-HTRF assay). […] DMSO is present at 5% final concentration in the assay. Following laser excitation of sample wells at 320 nm, the fluorescence signal at 620 nm is collected for 400 ms following a 50 μs delay on a RUBYstar HTRF plate reader (BMG Labtechnologies). Raw RFU data is normalized to maximum (1.0 nM BACE/DMSO) and minimum (no enzyme/DMSO) RFU values. […] The Ki values are calculated from the IC50 using the Cheng-Prusoff equation.

Sequence of soluble human BACE1 catalytic domain (P56817 75-416): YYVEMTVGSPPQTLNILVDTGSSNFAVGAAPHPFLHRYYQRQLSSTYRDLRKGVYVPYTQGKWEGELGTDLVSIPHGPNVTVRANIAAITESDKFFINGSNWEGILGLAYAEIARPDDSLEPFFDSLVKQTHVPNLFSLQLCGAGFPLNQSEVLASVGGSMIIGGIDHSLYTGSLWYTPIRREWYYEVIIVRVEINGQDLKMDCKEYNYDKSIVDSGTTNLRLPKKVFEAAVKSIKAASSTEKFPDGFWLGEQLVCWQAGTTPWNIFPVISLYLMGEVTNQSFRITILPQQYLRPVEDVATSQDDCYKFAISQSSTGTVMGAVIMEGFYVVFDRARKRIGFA

Structure (SMILES)	Ki [1] [µM]	Ki [2] [µM]
CN1C(=N)N[C@]2(C)c3cc(NC(=O)c4ccc(Cl)cn4)ccc3CCC[C@@H]2S1(=O)=O [Example 23, 5-chloro-N-((4aS,11bR)-2-imino-3,11b-dimethyl-4,4-dioxido-1,2,3,4a,5,6,7,11b-octahydrobenzo[6,7]cyclohepta[1,2-e][1,2,4]thiadiazin-10-yl)picolinamide]	0.007	0.007
CN1C(=N)N[C@]2(C)c3cc(NC(=O)c4ccc(OC(F)(F)F)cn4)ccc3CCC[C@@H]2S1(=O)=O [Example 29, N-((4aS,11bR)-2-imino-3,11b-dimethyl-4,4-dioxido-1,2,3,4a,5,6,7,11b-octahydrobenzo[6,7]cyclohepta[1,2-e][1,2,4]thiadiazin-10-yl)-5-(trifluoromethoxy)picolinamide]	0.014	0.144
CN1C(=N)N[C@]2(C)c3cc(NC(=O)c4ncc(Cl)cc4F)ccc3OCC[C@@H]2S1(=O)=O [Example 13, 5-chloro-3-fluoro-N-((4aS,11bR)-2-imino-3,11b-dimethyl-4,4-dioxido-2,3,4a,5,6,11b-hexahydro-1H-benzo[2,3]oxepino[4,5-e][1,2,4]thiadiazin-10-yl)picolinamide]	0.004	0.004
CN1C(=N)N[C@]2(C)c3cc(NC(=O)c4ccc(OC(F)F)cn4)ccc3CCC[C@H]2S1(=O)=O [Example 38, 5-(difluoromethoxy)-N-((4aR,11bR)-2-imino-3,11b-dimethyl-4,4-dioxido-1,2,3,4a,5,6,7,11b-octahydrobenzo[6,7]cyclohepta[1,2-e][1,2,4]thiadiazin-10-yl)picolinamide]	0.08	0.857
CN1C(=N)N[C@]2(C)c3cc(NC(=O)c4ncc(C(F)(F)F)cc4Cl)ccc3CCC[C@@H]2S1(=O)=O [Example 30, 3-chloro-N-((4aS,11bR)-2-imino-3,11b-dimethyl-4,4-dioxido-1,2,3,4a,5,6,7,11b-octahydrobenzo[6,7]cyclohepta[1,2-e][1,2,4]thiadiazin-10-yl)-5-(trifluoromethyl)picolinamide]	0.01	0.082
CN1C(=N)N[C@]2(C)c3cc(NC(=O)c4ccccn4)ccc3OCC[C@@H]2S1(=O)=O [Example 10, N-((4aS,11bR)-2-imino-3,11b-dimethyl-4,4-dioxido-2,3,4a,5,6,11b-hexahydro-1H-benzo[2,3]oxepino[4,5-e][1,2,4]thiadiazin-10-yl)picolinamide]	0.035	0.015
COc1cc(Br)cnc1C(=O)Nc1ccc2c(c1)[C@@]1(C)NC(=N)N(C)S(=O)(=O)[C@H]1CCC2 [Example 27, 5-bromo-N-((4aS,11bR)-2-imino-3,11b-dimethyl-4,4-dioxido-1,2,3,4a,5,6,7,11b-octahydrobenzo[6,7]cyclohepta[1,2-e][1,2,4]thiadiazin-10-yl)-3-methoxypicolinamide]	0.018	0.01
CN1C(=N)N[C@]2(C)c3cc(NC(=O)c4ccc(C#N)cn4)ccc3OCC[C@@H]2S1(=O)=O [Example 16, 5-cyano-N-((4aS,11bR)-2-imino-3,11b-dimethyl-4,4-dioxido-2,3,4a,5,6,11b-hexahydro-1H-benzo[2,3]oxepino[4,5-e][1,2,4]thiadiazin-10-yl)picolinamide]	0.001	0.014
COc1cnc2c(Nc3ccc4c(c3)[C@@]3(C)NC(=N)N(C)S(=O)(=O)[C@H]3CCC4)nccc2n1 [Example 44, (4aS,11bR)-2-imino-10-((2-methoxypyrido[3,4-b]pyrazin-5-yl)amino)-3,11b-dimethyl-1,2,3,4a,5,6,7,11b-octahydrobenzo[6,7]cyclohepta[1,2-e][1,2,4]-thiadiazine 4,4-dioxide]	0.045	0.173
CN1C(=N)N[C@]2(C)c3cc(NC(=O)c4ncc(F)cc4F)ccc3CCC[C@@H]2S1(=O)=O [Example 26, 3,5-difluoro-N-((4aS,11bR)-2-imino-3,11b-dimethyl-4,4-dioxido-1,2,3,4a,5,6,7,11b-octahydrobenzo[6,7]cyclohepta[1,2-e][1,2,4]thiadiazin-10-yl)picolinamide]	0.018	0.01
CN1C(=N)N[C@]2(C)c3cc(NC(=O)c4ccc(OC(F)F)cn4)ccc3OCC[C@@H]2S1(=O)=O [Example 12, 5-(difluoromethoxy)-N-((4aS,11bR)-2-imino-3,11b-dimethyl-4,4-dioxido-2,3,4a,5,6,11b-hexahydro-1H-benzo[2,3]oxepino[4,5-e][1,2,4]thiadiazin-10-yl)picolinamide]	0.005	0.058
Cc1cc(C#N)cnc1C(=O)Nc1ccc2c(c1)[C@@]1(C)NC(=N)N(C)S(=O)(=O)[C@H]1CCC2 [Example 35, 5-cyano-N-((4aS,11bR)-2-imino-3,11b-dimethyl-4,4-dioxido-1,2,3,4a,5,6,7,11b-octahydrobenzo[6,7]cyclohepta[1,2-e][1,2,4]thiadiazin-10-yl)-3-methylpicolinamide]	0.019	0.01
CN1C(=N)N[C@]2(C)c3cc(NCC4CC4)ccc3OCC[C@@H]2S1(=O)=O [Example 48, (4aS,11bR)-10-((cyclopropylmethyl)amino)-2-imino-3,11b-dimethyl-2,3,4a,5,6,11b-hexahydro-1H-benzo[2,3]oxepino[4,5-e][1,2,4]thiadiazine 4,4-dioxide]	0.88	2.01
CN1C(=N)N[C@]2(C)c3cc(NC(=O)c4ncc(Cl)cc4F)ccc3CCC[C@@H]2S1(=O)=O [Example 25, 5-chloro-3-fluoro-N-((4aS,11bR)-2-imino-3,11b-dimethyl-4,4-dioxido-1,2,3,4a,5,6,7,11b-octahydrobenzo[6,7]cyclohepta[1,2-e][1,2,4]thiadiazin-10-yl)picolinamide]	0.007	0.005
COc1cnc(C(=O)Nc2ccc3c(c2)[C@@]2(C)NC(=N)N(C)S(=O)(=O)[C@H]2CCC3)c(C)n1 [Example 33]	0.048	0.086
COc1cnc2c(Nc3ccc4c(c3)[C@@]3(C)NC(=N)N(C)S(=O)(=O)[C@H]3CCO4)nccc2c1 [Example 43, (4aS,11bR)-2-imino-10-((3-methoxy-1,7-naphthyridin-8-yl)amino)-3,11b-dimethyl-2,3,4a,5,6,11b-hexahydro-1H-benzo[2,3]oxepino[4,5-e][1,2,4]-thiadiazine 4,4-dioxide]	0.057	0.148
Cc1cnc(C(=O)Nc2ccc3c(c2)[C@@]2(C)NC(=N)N(C)S(=O)(=O)[C@H]2CCC3)cn1 [Example 24, N-((4aS,11bR)-2-imino-3,11b-dimethyl-4,4-dioxido-1,2,3,4a,5,6,7,11b-octahydrobenzo[6,7]cyclohepta[1,2-e][1,2,4]thiadiazin-10-yl)-5-methylpyrazine-2-carboxamide]	0.168	0.251
CN1C(=N)N[C@]2(C)c3cc(NC(=O)c4ncc(Cl)cc4Cl)ccc3OCC[C@@H]2S1(=O)=O [Example 11]	0.002	0.002
Cc1cc(F)cnc1C(=O)Nc1ccc2c(c1)[C@@]1(C)NC(=N)N(C)S(=O)(=O)[C@H]1CCC2 [Example 31, 5-fluoro-N-((4aS,11bR)-2-imino-3,11b-dimethyl-4,4-dioxido-1,2,3,4a,5,6,7,11b-octahydrobenzo[6,7]cyclohepta[1,2-e][1,2,4]thiadiazin-10-yl)-3-methylpicolinamide]	0.019	0.01
